Patent US6743923B2, “Antirheumatic agent” (Shionogi & Co., Ltd., priority 1997, dated 2004)

Assays:
[1] = system: adjuvant articular swelling; test: Rat adjuvant arthritis: inhibitory effect against articular swelling; format: in vivo
Procedure: A rat adjuvant arthritis model, which is commonly used in an in vivo evaluation for antirheumatic agents, was employed in this evaluation. To prepare an arthritis model, heat-killed cells of Mycobacterium butyricum (Difco) were suspended in mineral oil, and a rat was intradermally injected with 0.05 mL of 1% solution of the suspension at the plantar of left hind leg.
Using the above arthritis model, Compound Ia was administered to the animal for 22 days after injection of the adjuvant, and the articular swelling was measured from time to time to evaluate the prophylactic inhibitory effect. On the other hand, the curative effect was evaluated by administering Compound Ia to animals from Day 15 to Day 25 after injection of the adjuvant and measuring the articular swelling in injected and non-injected legs. Inhibitory and curative effects were expressed by effective dose for 30% inhibition (ED30).

[2] = system: transcription factor NFκB; test: Suppressive activity on transcription factor NFκB (HIV-1 LTR luciferase reporter in Jurkat cell); format: cell-based, human; conditions: for luciferase activity (%) mean ± standard error: TPA-PHA = 100
Procedure: A recombinant plasmid (pGV-B.HIV-1LTR), in which HIV-1 (AIDS) virus promoter LTR containing two NFκB binding sites is ligated to upstream of firefly luciferase gene, was constructed, and the DNA was purified. This plasmid DNA was introduced by electroporation into a Jurkat cell, a human T cell leukemic cell line, and the cell was cultured for 48 hours. Subsequently, phytohemagglutinin (PHA, 0.5%), phorbol ester (TPA (12-O-tetradecanoylphorbol 13-acetate), 25 ng/mL), and a predetermined concentration of the test compound were added thereto to allow to react for 2 hours, and the cells were harvested, and the luciferase activity in the cellular extract was measured.

With `CCN1CC/C(=C\c2cc(C(C)(C)C)c(O)c(C(C)(C)C)c2)S1(=O)=O` [Compound Ia, (E)-2-Ethyl-5-(3,5-di-tert-butyl-4-hydroxy)benzylidene-1,2-isothiazolidine-1,1-dioxide] the “dose with dose-dependent and significant inhibitory effect against articular swelling, curative effect” value ([1]; curative) was at least 3 mg/kg/day, the “dose with dose-dependent and significant inhibitory effect against articular swelling” value ([1]; prophylactic, adjuvant-injected leg) was at least 0.3 mg/kg/day and the “ED30 (95% confidence limits), prophylactic effect against adjuvant articular swelling” value ([1]; rat, administered for 22 days after injection of the adjuvant) was 0.88 (0.52-1.31) mg/kg/day. For the same molecule, the “ED30 (95% confidence limits), curative effect against adjuvant articular swelling” value ([1]; rat, administered from Day 15 to Day 25 after injection of the adjuvant) was 2.6 (1.3-6.4) mg/kg/day, the “luciferase activity (%) mean ± standard error” value ([2]; Experiment-1, 5 μM) was 82.2 ± 8.3% and the “luciferase activity (%) mean ± standard error” value ([2]; Experiment-1, 10 μM) was 79.6 ± 5.4%. For the same molecule, the “luciferase activity (%) mean ± standard error” value ([2]; Experiment-1, 20 μM) was 54.6 ± 4.3%, the “luciferase activity (%) mean ± standard error” value ([2]; Experiment-1, 50 μM) was 53.5 ± 5.9% and the “luciferase activity (%) mean ± standard error” value ([2]; Experiment-2, 20 μM) was 86.4 ± 1.9%. The “luciferase activity (%) mean ± standard error” value ([2]; Experiment-2, 50 μM) was 75.1%, the “luciferase activity (%) mean ± standard error” value ([2]; Experiment-2, 100 μM) was 61.1 ± 3.9% and the “concentration at which luciferase activity was inhibited” value ([2]; Jurkat cell, TPA-PHA) was 5 to 50 µM.
